Consider one compound from patent US7851467B2, “Carbamate compounds as 5-HT4 receptor agonists” (Theravance, Inc., priority 2005, dated 2010).

For one data set, the target named is T1, human 5-HT4(c) receptor (Homo sapiens, UniProt Q13639).
T1 construct: expressed in transfected cells; host or cells: HEK-293
Description: Radioligand binding assay on 5-HT4(c) human receptors ([3H]-GR113808 displacement). Conditions: HEK-293 membranes, [3H]-GR113808 at 0.15 nM, read-out: pKi value (converted). On the procedure:
Assay 1: Radioligand Binding Assay on 5-HT4(C) Human Receptors a. Membrane Preparation 5-HT4(c)
HEK-293 (human embryonic kidney) cells stably-transfected with human 5-HT4(C) receptor cDNA (Bmax=˜6.0 pmol/mg protein, as determined using [^3H]-GR113808 membrane radioligand binding assay) were grown in T-225 flasks in Dulbecco's Modified Eagles Medium (DMEM) containing 4,500 mg/L D-glucose and pyridoxine hydrochloride (GIBCO-Invitrogen Corp., Carlsbad Calif.: Cat #11965) supplemented with 10% fetal bovine serum (FBS) (GIBCO-Invitrogen Corp.: Cat #10437), 2 mM L-glutamine and (100 units) penicillin-(100 μg) streptomycin/ml (GIBCO-Invitrogen Corp.: Cat #15140) in a 5% CO2, humidified incubator at 37° C. […]
For the membrane preparation, cell pellets were resuspended in ice-cold 50 mM 4-(2-hydroxyethyl)-1-piperazineethanesulphonic acid (HEPES), pH 7.4 (membrane preparation buffer) (40 mL/total cell yield from 30-40 T225 flasks) and homogenized using a polytron disrupter (setting 19, 2×10 s) on ice. […] Protein concentration of the membrane suspension was determined by the method of Bradford (Bradford, 1976). […]
Test compounds were received as 10 mM stock solutions in DMSO and diluted to 400 μM into 50 mM HEPES pH 7.4 at 25° C., containing 0.1% BSA, and serial dilutions (1:5) then made in the same buffer. Non-specific binding was determined in the presence of 1 μM unlabeled GR113808. […]

Data set [1] in a line: Pharmacokinetic study in the rat. Conditions: male Sprague-Dawley rats. The class given is in vivo. The method, then:
Assay 6: Pharmacokinetic Study in the Rat
Aqueous solution formulations of test compounds were prepared in 0.1% lactic acid at a pH of between about 5 and about 6. Male Sprague-Dawley rats (CD strain, Charles River Laboratories, Wilmington, Mass.) were dosed with test compounds via intravenous administration (IV) at a dose of 2.5 mg/kg or by oral gavage (PO) at a dose of 5 mg/kg. The dosing volume was 1 mL/kg for IV and 2 mL/kg for PO administration. Serial blood samples were collected from animals pre-dose, and at 2 (IV only), 5, 15, and 30 min, and at 1, 2, 4, 8, and 24 hours post-dose. Concentrations of test compounds in blood plasma were determined by liquid chromatography-mass spectrometry analysis (LC-MS/MS) (MDS SCIEX, API 4000, Applied Biosystems, Foster City, Calif.) with a lower limit of quantitation of 1 ng/mL.
Standard pharmacokinetic parameters were assessed by non-compartmental analysis (Model 201 for IV and Model 200 for PO) using WinNonlin (Version 4.0.1, Pharsight, Mountain View, Calif.). The maximum in the curve of test compound concentration in blood plasma vs. time is denoted Cmax. The area under the concentration vs. time curve from the time of dosing to the last measurable concentration (AUC(O-t)) was calculated by the linear trapezoidal rule. Oral bioavailability (F(%)), i.e. the dose-normalized ratio of AUC(O-t) for PO administration to AUC(O-t) for IV administration, can be calculated as: F(%)=AUCPO/AUCIV×DoseIV/DosePO×100%
The compounds of the invention that were tested in this assay had Cmax values between about 0.15 to about 0.35 μg/mL and AUC(0−t) values between about 0.5 to about 1.1 μg·hr/mL.

The mark [2] stands for this setting: blood plasma, dosing IV 2.5 mg/kg or PO 5 mg/kg.

T1 sequence (Q13639 1-380 isoform Q13639-4): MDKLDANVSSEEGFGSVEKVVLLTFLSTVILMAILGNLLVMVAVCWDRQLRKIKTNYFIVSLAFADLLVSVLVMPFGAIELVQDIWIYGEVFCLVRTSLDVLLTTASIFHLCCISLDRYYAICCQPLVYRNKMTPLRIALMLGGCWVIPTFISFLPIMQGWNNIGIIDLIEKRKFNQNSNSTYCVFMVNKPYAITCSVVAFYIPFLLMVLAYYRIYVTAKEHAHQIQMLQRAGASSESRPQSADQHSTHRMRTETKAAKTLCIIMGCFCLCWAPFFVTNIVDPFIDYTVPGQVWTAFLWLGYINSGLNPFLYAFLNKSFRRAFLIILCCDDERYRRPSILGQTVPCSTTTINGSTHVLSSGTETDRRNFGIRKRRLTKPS

Take `CC(C)n1c(=O)n(C(=O)N[C@H]2C[C@H]3CC[C@@H](C2)N3CCCOC(=O)N2CCN(C(=O)C3CCCO3)CC2)c2ccccc21` (stereo partly drawn) [Example 1, 4-(tetrahydrofuran-2-carbonyl)piperazine-1-carboxylic acid 3-{(1S,3R,5R)-3-[(3-isopropyl-2-oxo-2,3-dihydrobenzoimidazole-1-carbonyl)amino]-8-aza-bicyclo[3.2.1]oct-8-yl}propyl ester]: the Ki at human 5-HT4(c) receptor was 12.6 nM. Moreover, in data set [1] (setting [2]), the area under the curve AUC(0-t) (as a rule, the area under the concentration-time curve up to a stated or last time point) is 970 ng·h/mL and the highest level (Cmax) was 320 ng/mL. Also, the bioavailability – broadly, the share of a dose that reaches the circulation, judged against a reference dose that is usually intravenous – in data set [1] (plasma, PO 5 mg/kg vs IV 2.5 mg/kg, dose-normalized AUC ratio, read-out: oral bioavailability F(%)) is 55%.
